Drawing on patent publication US20060241114A1, “Derivatives of azasugars as anticancer agents” (priority 2003, published 2006), this text covers GI50 for 19 molecules.

The structures appear in SMILES notation.

For test [1], the system named is U251 (human glioblastoma). Briefly: In vitro growth inhibition screen (sulphorhodamine B), U251. The class given is cell-based. To be noted: U251 cells, incubated for 48 hours, sulphorhodamine B dye; read-out: GI50 (concentration which inhibits the cell growth by 50%), U251 Human glioblastoma astrocytoma. Put shortly:
(§1)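 SRB assay, 48 h treatment, RPMI 1640 + 10% FCS, 37° C, 5% CO2; dose range ≧100 μM–10 nM in ten-fold steps; OD 490 nm; GI50 derived.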
A general note: The SRB assay estimates cell density from bound dye.

In test [2] the test system is HT29 (colorectal adenocarcinoma). Briefly: In vitro growth inhibition screen (sulphorhodamine B), HT29. The settings on record: HT29 cells, incubated for 48 hours, sulphorhodamine B dye; read-out: GI50 (concentration which inhibits the cell growth by 50%), HT29 Colorectal adenocarcinoma. Type of test: cell-based, human. Put shortly: as §1
Test [3] has as its system DU145 (prostate carcinoma). Briefly: In vitro growth inhibition screen (sulphorhodamine B), DU145. Type of test: cell-based, human. To be noted: DU145 cells, incubated for 48 hours, sulphorhodamine B dye; read-out: GI50 (concentration which inhibits the cell growth by 50%), DU145 Prostate carcinoma. The gist of the method:
as §1

Test [4] deals with MCF7 (breast adenocarcinoma). Briefly: In vitro growth inhibition screen (sulphorhodamine B), MCF7. The class given is cell-based, human. The settings on record: MCF7 cells, incubated for 48 hours, sulphorhodamine B dye; read-out: GI50 (concentration which inhibits the cell growth by 50%), MCF7 Breast adenocarcinoma. The gist of the method:
as §1

In another test the test system is LOX (melanoma). Briefly: In vitro growth inhibition screen (sulphorhodamine B), LOX. The class given is cell-based, human. The settings on record: LOX cells, incubated for 48 hours, sulphorhodamine B dye; read-out: GI50 (concentration which inhibits the cell growth by 50%), LOX Melanoma. The gist of the method: as §1
Test [5] has as its system MCF7ADR (adriamycin resistant breast adenocarcinoma). Briefly: In vitro growth inhibition screen (sulphorhodamine B), MCF7ADR. The class given is cell-based, human. To be noted: MCF7ADR cells, incubated for 48 hours, sulphorhodamine B dye; read-out: GI50 (concentration which inhibits the cell growth by 50%), MCF7ADR Adriamycin Resistant Breast adenocarcinoma. The gist of the method: as §1

As to `CCCN1C(=O)[C@H](O)[C@@H](O)[C@H](O)[C@H]1CNC(=O)Cn1cncn1` [Compound No. 66, N-Propyl-6-{2-[triazolyl]-acetyl}-D-gluco-δ-lactam], the GI50 in test [1] turned out to be 142 µM; in test [2], 149 µM; in test [3], 82.9 µM; in test [4], 124 µM; with LOX (melanoma), 58.2 µM; in test [5] it was 196 µM.

Take `CCCN1C(=O)[C@H](O)[C@@H](O)[C@H](O)[C@H]1CNC(=O)CN1CCN(C)CC1` [Compound No. 68, 6-N-{2-[(N-Methyl)piperazinyl]acetyl}-N-propyl-D-gluco-δ-lactam]: the GI50 in test [1] is 22 µM; in test [2] it was 14.1 µM; in test [3], 39 µM; in test [4], 32.4 µM; in the test on LOX (melanoma), 48.2 µM; in test [5] it was 27.7 µM.

Take `C=CCN1C(=O)[C@H](OCc2ccccc2)[C@@H](OCc2ccccc2)[C@H](OCc2ccccc2)[C@H]1Cn1ccnn1` [Compound No. 69, N-Allyl-2,3,4-tri-O-benzyl-6-triazolyl-D-gluco-δ-lactam]: the GI50 in test [1] came out at 37.9 µM; in test [2], 31.6 µM; in test [3], 51 µM; in test [4], 47.8 µM; with LOX (melanoma) it was 47.4 µM; in test [5], 39.4 µM.

As to `CCCN1C(=O)[C@H](O)[C@@H](O)[C@H](O)[C@H]1Cn1cncn1` [Compound No. 70, 6-Triazolyl-N-propyl-D-gluco-δ-lactam], the GI50 in test [1] stood at 516 µM; in test [2], 302 µM; in test [3] it was 252 µM; in test [4], 340 µM; in the test on LOX (melanoma), 232 µM; in test [5], 894 µM.

Take `O[C@H]1[C@H](O)[C@@H](Cn2cncn2)NC[C@@H]1O` [Compound No. 72, 1,5-Dideoxy-1,5-imino-6-triazolyl-glucitol]: the GI50 in test [1] is 282 µM; in test [2] it was 244 µM; in test [3] it was 340 µM; in test [4], 208 µM; in the test with LOX (melanoma), 146 µM; in test [5] it was 275 µM.

On to `CCCN1C[C@H](O)[C@@H](O)[C@H](O)[C@H]1Cn1ccnn1` [Compound No. 73, 1,5-Dideoxy-1,5-imino-N-propyl-6-triazolyl glucitol], for which the GI50 in test [1] was determined as 506 µM; in test [2], 470 µM; in test [3] it was 267 µM; in test [4], 320 µM; in the test on LOX (melanoma), 247 µM; in test [5], 291 µM.

In the case of `CCCN1C(=O)[C@H](OCc2ccccc2)[C@@H](OCc2ccccc2)[C@H](OCc2ccccc2)[C@H]1CNC(=O)Oc1ccccc1` [Compound No. 74, 2,3,4-Tri-O-benzyl-6-N-[phenyl carbamate]-N-propyl-D-gluco-δ-lactam], the GI50 in test [1] was found to be 34.2 µM; in test [2], 10.7 µM; in test [3], 90.9 µM; in test [4], 25.4 µM; in the test on LOX (melanoma) it was 51.8 µM; in test [5], 26.1 µM.

For `CCCN1C(=O)[C@H](OCc2ccccc2)[C@@H](OCc2ccccc2)[C@H](OCc2ccccc2)[C@H]1CNC(=O)N1CCN(c2ccc(Cl)cc2)CC1` [Compound No. 75, 2,3,4-Tri-O-benzyl-6-N-{4-[4-chlorophenyl]piperazinylcarboxamido}-N-propyl-D-gluco-δ-lactam], the GI50 in test [1] amounted to 8.8 µM; in test [2], 18.4 µM; in test [3], 25.7 µM; in test [4], 1.6 µM; with LOX (melanoma), 16.9 µM; in test [5], 11.6 µM.

In the case of `CCCN1C(=O)[C@H](OCc2ccccc2)[C@@H](OCc2ccccc2)[C@H](OCc2ccccc2)[C@H]1CNC(=O)N1CCN(c2ccc(F)cc2)CC1` [Compound No. 76, 2,3,4-Tri-O-benzyl-6-N-{4-[4-fluorophenyl]piperazinylcarboxamido}-N-propyl-D-gluco-δ-lactam], the GI50 in test [1] came to 25.7 µM; in test [2], 28.6 µM; in test [3], 45.2 µM; in test [4], 38.6 µM; with LOX (melanoma), 40.9 µM; in test [5] it was 90.7 µM.

As for `CCCN1C(=O)[C@H](OCc2ccccc2)[C@@H](OCc2ccccc2)[C@H](OCc2ccccc2)[C@H]1CNC(=O)N1CCc2ccccc21` [Compound No. 77, 2,3,4-Tri-O-benzyl-6-N-{1,2-dihydro(2H)-indolylcarboxamido}-N-propyl-D-gluco-δ-lactam], the GI50 in test [1] is 28.6 µM; in test [2], 17.5 µM; in test [3], 49.4 µM; in test [4] it was 56.1 µM; in the test with LOX (melanoma) it was 29.5 µM; in test [5], 69.1 µM.

Regarding `CCCN1C(=O)[C@H](OCc2ccccc2)[C@@H](OCc2ccccc2)[C@H](OCc2ccccc2)[C@H]1CNC(=O)N1CC2C(C1)C2NC(C)=O` (stereo partly drawn) [Compound No. 79, 2,3,4-Tri-O-benzyl-6-N-{(1α,5α,6α)-6-acetylamino-azabicyclo[3.1.0]hexylcarboxamido}-N-propyl-D-gluco-δ-lactam], the GI50 is 15.5 µM in test [1]; 21.8 µM in test [2]; 18.9 µM in test [3]; 18.2 µM in test [4]; 7.4 µM with LOX (melanoma); 17.9 µM in test [5].

As to `C=CCN1C(=O)C(OCc2ccccc2)C(OCc2ccccc2)C(OCc2ccccc2)C1Cn1ncn(-c2ccc(Cl)cc2)c1=O` [Compound No. 81, 2,3,4-Tri-O-benzyl-6-[4-chlorophenyl-3(2H,4H)-1,2,4-triazol-3-onyl]-N-allyl-D-gluco-δ-lactam], the GI50 in test [1] was > 250 µM; in test [2], 49.5 µM; in test [3] it was 70.1 µM; in test [4], 102 µM; in the test with LOX (melanoma), 11.9 µM; in test [5] it was 77 µM.

For the molecule `C=CCN1C(=O)C(OCc2ccccc2)C(OCc2ccccc2)C(OCc2ccccc2)C1CN1C(=O)CCCC1=O` [Compound No. 82, N-Allyl-2,3,4-tri-O-benzyl-6-(2,6-diketopiperidino)-D-gluco-δ-lactam], the GI50 in test [1] amounted to 12.5 µM; in test [2], 23.5 µM; in test [3] it was 24.8 µM; in test [4], 9.9 µM; with LOX (melanoma), 8.5 µM; in test [5] it was 17.5 µM.

For `C=CCN1C(=O)[C@H](OCc2ccccc2)[C@@H](OCc2ccccc2)[C@H](OCc2ccccc2)[C@H]1CN1C(=O)c2ccccc2C1=O` [Compound No. 83, N-Allyl-2,3,4-tri-O-benzyl-6-(1H-isoindole-1,3(2H)-diketo)-D-gluco-δ-lactam], the GI50 in test [1] was > 140 µM; in test [2], 80.1 µM; in test [3], 55.2 µM; in test [4], 13.1 µM; with LOX (melanoma), 51.4 µM; in test [5] it was 6.7 µM.

Take `C=CCN1C(=O)C(OCc2ccccc2)C(OCc2ccccc2)C(OCc2ccccc2)C1CN1C(=O)CCC1=O` [Compound No. 84, N-Allyl-2,3,4-tri-O-benzyl-6-(2,5-diketopyrrolidino)-D-gluco-δ-lactam]: the GI50 in test [1] was 9.3 µM; in test [2], 18.7 µM; in test [3], 18.3 µM; in test [4], 5.3 µM; in the test on LOX (melanoma), 5.9 µM; in test [5], 6.4 µM.

On to `C=CCN1C[C@H](OCc2ccccc2)[C@@H](OCc2ccccc2)[C@H](OCc2ccccc2)[C@H]1CN1CCOCC1` [Compound No. 85, N-Allyl-2,3,4-tri-O-benzyl-1,5-dideoxy-1,5-imino-6-morpholino glucitol], for which the GI50 is 25.9 µM in test [1]; 11.3 µM in test [2]; 43.5 µM in test [3]; 7.2 µM in test [4]; 27.3 µM with LOX (melanoma); 40.3 µM in test [5].

`CCCN1C(=O)[C@H](O)[C@@H](O)[C@H](O)[C@H]1CN1C(=O)CCC1=O` [Compound No. 86, 6-(2,5-Diketopyrrolidino)-N-propyl-D-gluco-δ-actam]: the GI50 in test [1] worked out at 34.4 µM; in test [2] it was 44.4 µM; in test [3], 38.5 µM; in test [4], 36.2 µM; with LOX (melanoma), 37.5 µM; in test [5], 52.2 µM.

As for `CCCN1C(=O)[C@H](O)[C@@H](O)[C@H](O)[C@H]1CN1C(=O)CCCC1=O` [Compound No. 87, 6-(2,6-Diketopiperidino)-N-propyl-D-gluco-δ-lactam], the GI50 was 101 µM in test [1]; 108 µM in test [2]; 131 µM in test [3]; 74.2 µM in test [4]; 244 µM with LOX (melanoma); 96.9 µM in test [5].

As to `CCCN1C(=O)[C@H](OCc2ccccc2)[C@@H](OCc2ccccc2)[C@H](OCc2ccccc2)[C@H]1COc1nc(Cl)nc(Cl)n1` [Compound No. 90, 2,3,4-Tri-O-benzyl-6-O-(4,6-dichloro-1,3,5-triazin-1-yl)-N-propyl-D-gluco-δ-lactam], the GI50 in test [1] was 52.8 µM; in test [2], 37.1 µM; in test [3], 16.7 µM; in test [4], 35.4 µM; with LOX (melanoma), 14.4 µM; in test [5] it was 18.7 µM.
